The source of these data is patent publication US8338414B2, “Immunosuppressive agent and anti-tumor agent comprising heterocyclic compound as active ingredient” (Zenyaku Kogyo KabushikiKaisha, priority 2005, dated 2012).

For orientation: melting point means the temperature, or range, at which the solid turns liquid.

One series relates to mouse spleen cells. Kind of series: Proliferation inhibition assay for mouse spleen cells. The format is cell-based. To be noted: 3 days, Alamar Blue. The procedure: Spleen cells (2×10^6 cells/mL) prepared from C57BL/6N female mice (8 weeks old, purchased from Charles River Laboratories Japan Inc.) were suspended in RPMI 1640 medium (containing 10% fetal bovine serum, 10 mM HEPES, 1 mM pyruvic acid, 4.5 g/L glucose, 100 units/mL penicillin, and 0.1 mg/mL streptomycin), and seeded in wells of a 96 well plate at 0.225 mL per well. Serial dilutions of test substances were added to respective wells, and then concanavalin A (Con A, 3 μg/mL), lipopolysaccharide (LPS, 100 μg/mL), or an anti-mouse IgM antibody (100 μg/mL) were added. Thereafter, they were incubated under conditions of carbon dioxide 5% at a temperature 37° C. for 3 days. Next, Alamar Blue solution was added at 50 μL per 150 μL, and after having cultured for one day, the fluorescence intensity at 590 nm using an excitation wavelength of 530 nm was determined by Cytoflour 4000 (Applied Biosystems).

Series [1] concerns Rabbit synoviocytes HIG-82. Kind of series: Inhibition assay for proliferation of rabbit synoviocyte. The format is cell-based. To be noted: HIG-82, 3 days, Alamar Blue. The protocol: Rabbit synoviocytes HIG-82 suspended in HAM medium (containing 10% fetal bovine serum, 25 mM HEPES, and 0.1 mg/mL kanamycin) (with 4×10^4 cells/mL) were seeded in wells of a 96 well plate at 0.135 mL per well. Then, 15 μL of each of serial dilutions of test substances was added to a respective well, and incubated under conditions of carbon dioxide 5% at a temperature 37° C. Alamar Blue solution was added at 50 μL per well on day 0 and day 3, and incubated for one day, and thereafter fluorescence intensity at 590 nm using an excitation wavelength of 530 nm was determined by Cytoflour 4000 (Applied Biosystems).
(Alamar Blue is a resazurin reagent that responds to reducing activity.)

A further series concerns Daudi cells. Briefly: Proliferation inhibitory activity on hematologic neoplasm cells, Daudi. The format is cell-based. As to conditions: 3 days, Alamar Blue. The protocol: (§1) Daudi cells (5×10^5 cells/mL), Jurkat cells (5×10^5 cells/mL), THP-1 cells (5×10^5 cells/mL), U 937 cells (5×10^5 cells/mL), and HL 60 cells (5×10^5 cells/mL) suspended in RPMI 1640 medium (containing 10% fetal bovine serum, 10 mM HEPES, 1 mM pyruvic acid, 4.5 g/L glucose, 100 units/mL penicillin, and 0.1 mg/mL streptomycin) were seeded in 96 well plates at a capacity of 0.135 mL per well. Serial dilutions of test substances were added to respective wells at 15 μL/well, and incubated under conditions of carbon dioxide 5% at 37° C. for 3 days. Thereafter, Alamar Blue solution was added at 50 μL, and after incubation for one day, the fluorescence intensity at 590 nm using an excitation wavelength of 530 nm was determined by Cytoflour 4000 (Applied Biosystems).

The next series relates to Jurkat cells. Kind of series: Proliferation inhibitory activity on hematologic neoplasm cells, Jurkat. The format is cell-based. To be noted: 3 days, Alamar Blue. The protocol: as §1
A further series deals with THP-1 cells. Kind of series: Proliferation inhibitory activity on hematologic neoplasm cells, THP-1. The format is cell-based. As to conditions: 3 days, Alamar Blue. The protocol:
as §1

Setting [2] is: 72 h, LPS 100 μg/mL, read-out: Inhibition of LPS response.
The mark [3] stands for this setting: 72 h, anti-mouse IgM antibody 100 μg/mL, read-out: Inhibition of Anti-IgM antibody response.
Where [4] appears, read: 72 h, concanavalin A 3 μg/mL, read-out: Inhibition of Con A response.

Read-outs that look alike come from different tables or passages of the source.

`C[C@@H]1OCCN(c2nc(N3CCOCC3)nc(-n3cnc4ccccc43)n2)[C@H]1C` (relative stereo) [Compound 2, 2-(Benzimidazol-1-yl)-4-(trans-2,3-dimethylmorpholino)-6-morpholino-1,3,5-triazine]: the melting point lay in the range of 147 to 150 °C. Besides, in the series with mouse spleen cells (setting [2]), the IC50 is 100 to 10000 nM. In addition, the IC50 with mouse spleen cells (setting [3]) lay within 100 to 10000 nM. The IC50 in the series on mouse spleen cells (setting [4]) lay within 100 to 10000 nM.

As to `C[C@@H]1OCCN(c2nc(N3CCOCC3)nc(-n3c(C(F)F)nc4ccc(N)cc43)n2)[C@@H]1C` (relative stereo) [Compound 8, 2-(6-Amino-2-difluoromethylbenzimidazol-1-yl)-4-(cis-2,3-dimethylmorpholino)-6-morpholino-1,3,5-triazine], the melting point is 220 to 222 °C (dec.). In addition, the IC50 in the series on mouse spleen cells (setting [2]) lay within 100 to 10000 nM. Besides, the IC50 in the series with mouse spleen cells (setting [3]) lay within 1 to 100 nM. Further, in the series with mouse spleen cells (setting [4]), the IC50 fell in the range of 1 to 100 nM.

For the molecule `Nc1nc2ccccc2n1-c1nc(N2CCOCC2)cc(N2CCOCC2)n1` [Compound 5, 2-(2-Aminobenzimidazol-1-yl)-4,6-dimorpholinopyrimidine], the melting point lay within 237 to 239 °C. For the same molecule, in the series on mouse spleen cells (setting [2]), the IC50 lay in the range of 100 to 10000 nM. Also, in the series with mouse spleen cells (setting [3]), the IC50 is 100 to 10000 nM. In addition, the IC50 in the series with mouse spleen cells (setting [4]) lay within 100 to 10000 nM.

Turning to `FC(F)c1nc2ccccc2n1-c1nc(N2CCCCC2)nc(N2CCOCC2)n1` [Compound 7, 2-(2-Difluoromethylbenzimidazol-1-yl)-4-piperidino-6-morpholino-1,3,5-triazine], the melting point lay in the range of 190 to 192 °C. For the same molecule, the IC50 with mouse spleen cells (setting [2]) is 100 to 10000 nM. Moreover, the IC50 with mouse spleen cells (setting [3]) was in the range of 100 to 10000 nM. In the series with mouse spleen cells (setting [4]), the IC50 lay within 100 to 10000 nM.

`CCOc1ccc2nc(C(F)F)n(-c3nc(N4CCOCC4)nc(N4CCOCC4)n3)c2c1` [Compound 9, 2-(2-Difluoromethyl-6-ethoxybenzimidazol-1-yl)-4,6-dimorpholino-1,3,5-triazine] yielded a melting point of 222 to 224 °C. Moreover, the IC50 in the series on mouse spleen cells (setting [2]) lay within 1 to 100 nM. In addition, in the series on mouse spleen cells (setting [3]), the IC50 lay in the range of 1 to 100 nM. Moreover, the IC50 with mouse spleen cells (setting [4]) lay in the range of 1 to 100 nM.

`Oc1ccc2c(c1)nc(C(F)F)n2-c1nc(N2CCOCC2)nc(N2CCOCC2)n1` [Compound 12, 2-(2-Difluoromethyl-5-hydroxybenzimidazol-1-yl)-4,6-dimorpholino-1,3,5-triazine] registered a melting point of 272 to 274 °C. Also, the IC50 with mouse spleen cells (setting [2]) lay in the range of 1 to 100 nM. In the series on mouse spleen cells (setting [3]), the IC50 is 1 to 100 nM. Besides, the IC50 with mouse spleen cells (setting [4]) is 1 to 100 nM.

As for `CC1(C)CN(c2nc(N3CCOCC3)nc(-n3c(C(F)F)nc4ccc(N)cc43)n2)CCO1` [Compound 13, 2-(6-Amino-2-difluoromethylbenzimidazol-1-yl)-4-(2,2-dimethylmorpholino)-6-morpholino-1,3,5-triazine], the melting point was 226 to 227 °C (dec.). Besides, the IC50 in the series on mouse spleen cells (setting [2]) is 1 to 100 nM. Also, the IC50 in the series on mouse spleen cells (setting [3]) lay in the range of 1 to 100 nM. For the same molecule, the IC50 in the series on mouse spleen cells (setting [4]) is 1 to 100 nM.

With `CC1CN(c2cc(N3CC(C)OC(C)C3)nc(-n3c(C(F)F)nc4cc(N)ccc43)n2)CC(C)O1` (stereo not shown) [Compound 17, 2-(5-Amino-2-difluoromethylbenzimidazol-1-yl)-4,6-di(2,6-dimethylmorpholino)pyrimidine], the melting point was 157 to 160 °C. The IC50 with mouse spleen cells (setting [2]) was 10000 to 100000 nM. Moreover, in the series on mouse spleen cells (setting [3]), the IC50 lay in the range of 100 to 10000 nM. Also, the IC50 in the series with mouse spleen cells (setting [4]) is 100 to 10000 nM.

In turn, `CC1(C)CN(c2cc(N3CCOCC3)nc(-n3c(C(F)F)nc4c(O)cccc43)n2)CCO1` [Compound 21, 2-(2-Difluoromethyl-4-hydroxybenzimidazol-1-yl)-4-(2,2-dimethylmorpholino)-6-morpholinopyrimidine] registered a melting point of 185 to 187 °C. The IC50 in the series on mouse spleen cells (setting [2]) was at most 1 nM. Also, in the series with mouse spleen cells (setting [3]), the IC50 is at most 1 nM. Moreover, the IC50 in the series with mouse spleen cells (setting [4]) was at most 1 nM.

Take `ON1CCN(c2nc(N3CCOCC3)nc(-n3c(C(F)F)nc4ccccc43)n2)CC1` [Compound 26, 2-(2-Difluoromethylbenzimidazol-1-yl)-4-(4-hydroxypiperizin-1-yl)-6-morpholino-1,3,5-triazine]: the IC50 in the series with mouse spleen cells (LPS 100 μg/mL, read-out: Inhibition of LPS response) is 1 to 100 nM; in the series with mouse spleen cells (concanavalin A 3 μg/mL, read-out: Inhibition of Con A response), at most 1 nM; in series [1] it was 2380 nM; with Daudi cells, 426 nM; in the series with Jurkat cells, 3120 nM; in the series on THP-1 cells it was 865 nM.

In turn, `Cc1cc2nc(C(F)F)n(-c3nc(N4CCOCC4)nc(N4CCOCC4)n3)c2cc1C` [Production Example 29, 2-(5,6-Dimethyl-2-difluoromethylbenzimidazol-1-yl)-4,6-dimorpholino-1,3,5-triazine] registered a melting point of 217 to 220 °C.

Turning to `Nc1cc(Cl)c2nc(C(F)F)n(-c3nc(N4CCOCC4)nc(N4CCCC4CO)n3)c2c1` (stereo not shown) [Production Example 30, 2-(6-Amino-4-chloro-2-difluoromethylbenzimidazol-1-yl)-4-(2-hydroxymethylpyrrolidin-1-yl)-6-morpholino-1,3,5-triazine], the melting point is 256 °C (dec.).

`Oc1ccc2c(nc(C(F)F)n2-c2nc(N3CCOCC3)nc(N3CCOCC3)n2)c1Cl` [Production Example 31, 2-(4-Chloro-2-difluoromethyl-5-hydroxybenzimidazol-1-yl)-4,6-dimorpholino-1,3,5-triazine] came in with a melting point above 250 °C.

As to `O=CN1CCN(c2nc(N3CCOCC3)nc(-n3c(C(F)F)nc4ccccc43)n2)CC1` [Production Example 33, 2-(2-Difluoromethylbenzimidazol-1-yl)-6-(4-formylpiperazin-1-yl)-4-morpholino-1,3,5-triazine], the melting point is 228 to 230 °C.

In the case of `O=C1CN(c2nc(N3CCOCC3)nc(-n3c(C(F)F)nc4ccccc43)n2)CCN1` [Production Example 34, 2-(2-Difluoromethylbenzimidazol-1-yl)-4-morpholino-6-(3-oxopiperazin-1-yl)-1,3,5-triazine], the melting point lay in the range of 255 to 257 °C.

Molecule `O=C1CN(c2nc(N3CCOCC3)nc(-n3c(C(F)F)nc4ccccc43)n2)CC(=O)N1` [Production Example 35, 2-(2-Difluoromethylbenzimidazol-1-yl)-6-(3,5-dioxopiperazin-1-yl)-4-morpholino-1,3,5-triazine] had a melting point of 230 to 232 °C.

Molecule `COC(=O)N1CCN(c2nc(N3CCOCC3)nc(-n3c(C(F)F)nc4ccccc43)n2)CC1` [Production Example 43, 2-(2-Difluoromethylbenzimidazol-1-yl)-4-(4-methoxycarbonylpiperazin-1-yl)-6-morpholino-1,3,5-triazine] came in with a melting point of 255 to 260 °C.
